Columns and labels:
QsdR = molecular target: T1, QsdR (Rhodococcus erythropolis, UniProt A0A0C2W9F0); experiment: EMSA with biotinylated qsdR-qsdA intergenic DNA, release of DNA; format: binding; details: ligand/QsdR molecular ratio 0.1 to 100, 3 μg QsdR, 0.4 ng DNA, room temperature
T1 construct: gene I3517_23075; qsdR ORF (563 bp NdeI-BamHI fragment) in pET19, His-tagged, E. coli BL21DE3, Ni-NTA; about 20 kDa; dimer
T1 sequence (A0A0C2W9F0 1-186): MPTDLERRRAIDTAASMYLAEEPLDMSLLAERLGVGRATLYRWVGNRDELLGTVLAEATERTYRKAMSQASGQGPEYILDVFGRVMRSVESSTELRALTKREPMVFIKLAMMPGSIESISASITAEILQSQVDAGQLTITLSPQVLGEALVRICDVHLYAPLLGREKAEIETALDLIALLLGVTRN

[1] = molecular target: T2, QsdR (His-tagged) (Rhodococcus erythropolis R138?) (UniProt A0A0C2W9F0); experiment: EMSA; details: LightShift Chemiluminescent EMSA Kit buffer (composition, salt, pH not stated); QsdR in Qiagen elution buffer with 50% glycerol; 20 min at room temperature …
T2 sequence: T1 sequence (A0A0C2W9F0 1-186)

Molecule: CCC1CCC(=O)O1 (stereo not drawn) [GCL, γ-caprolactone]
- EMSA with biotinylated qsdR-qsdA intergenic DNA, release of DNA (QsdR; GCL in methanol-water 20:80): The addition of increasing amounts of GCL led to a proportional increase in the amount

Molecule: N[C@H]1CCOC1=O [HSL, homoserine lactone]
- EMSA with biotinylated qsdR-qsdA intergenic DNA, release of DNA (QsdR; HSL in 10 mM Tris pH 7, positive control): inhibition of the DNA-binding activity of QsdR was also observed in the presence of HSL

Molecule: GGTAGGCATCGGGACATTCTCTCCGGTTGTCCGGTACTGCACAATTTCGGCGGTCGAACAGAGGTGGGCTTCGGGTGGCTCGAGCCTATTGACGAACCAAGCGACGTGAGACACACTAGCTCATTGTCTCATGTTAGTGATGGCGATCACAGTCAGGGGTTCGATCGATGAG (double strand) [qsdR-qsdA intergenic DNA fragment]
- binding [1]: binds
